pEC50: −log10 of the molar value.
Legend:
Format in all cases: cell-based
TLR7 = biological target: T1, TLR7 (Homo sapiens, UniProt Q9NYK1); test: TLR7 EC50 assay
T1 sequence (Q9NYK1 27-1049): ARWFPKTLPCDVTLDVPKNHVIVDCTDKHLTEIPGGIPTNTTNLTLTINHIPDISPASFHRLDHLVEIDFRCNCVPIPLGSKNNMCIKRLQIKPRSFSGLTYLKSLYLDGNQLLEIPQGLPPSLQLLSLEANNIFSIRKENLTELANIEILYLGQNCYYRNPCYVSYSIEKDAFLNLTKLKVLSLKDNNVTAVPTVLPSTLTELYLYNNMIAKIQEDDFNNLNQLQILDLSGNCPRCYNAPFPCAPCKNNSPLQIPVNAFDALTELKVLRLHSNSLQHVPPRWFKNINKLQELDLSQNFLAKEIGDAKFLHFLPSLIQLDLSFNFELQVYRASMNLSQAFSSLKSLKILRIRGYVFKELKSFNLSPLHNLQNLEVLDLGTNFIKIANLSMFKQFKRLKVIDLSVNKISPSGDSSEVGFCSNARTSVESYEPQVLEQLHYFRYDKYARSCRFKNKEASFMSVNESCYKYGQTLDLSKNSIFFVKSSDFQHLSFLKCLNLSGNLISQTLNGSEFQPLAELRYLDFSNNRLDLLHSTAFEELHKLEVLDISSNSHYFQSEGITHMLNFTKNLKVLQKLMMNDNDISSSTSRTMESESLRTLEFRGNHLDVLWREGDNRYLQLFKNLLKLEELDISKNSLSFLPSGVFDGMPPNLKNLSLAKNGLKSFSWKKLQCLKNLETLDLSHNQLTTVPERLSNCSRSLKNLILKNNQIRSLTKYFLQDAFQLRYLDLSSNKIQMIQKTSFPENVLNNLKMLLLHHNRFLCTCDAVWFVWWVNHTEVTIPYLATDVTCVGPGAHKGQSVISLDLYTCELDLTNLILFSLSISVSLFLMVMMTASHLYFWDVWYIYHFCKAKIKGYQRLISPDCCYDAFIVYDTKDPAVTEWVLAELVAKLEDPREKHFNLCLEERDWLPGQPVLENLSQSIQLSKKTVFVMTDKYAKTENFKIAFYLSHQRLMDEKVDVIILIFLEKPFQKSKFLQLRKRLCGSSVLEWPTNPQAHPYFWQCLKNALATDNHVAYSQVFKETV

hNLRP3 = biological target: T2, hNLRP3 (Homo sapiens, UniProt Q96P20); test: hNLRP3 agonist assay: IL-1β production in PMA-differentiated THP-1 cells (ELISA); conditions: IL-1β by ELISA
T2 construct: THP-1 cells were purchased from the American Type Culture Collection; host or cells: THP-1 cells, PMA-differentiated
T2 sequence (Q96P20 whole entry): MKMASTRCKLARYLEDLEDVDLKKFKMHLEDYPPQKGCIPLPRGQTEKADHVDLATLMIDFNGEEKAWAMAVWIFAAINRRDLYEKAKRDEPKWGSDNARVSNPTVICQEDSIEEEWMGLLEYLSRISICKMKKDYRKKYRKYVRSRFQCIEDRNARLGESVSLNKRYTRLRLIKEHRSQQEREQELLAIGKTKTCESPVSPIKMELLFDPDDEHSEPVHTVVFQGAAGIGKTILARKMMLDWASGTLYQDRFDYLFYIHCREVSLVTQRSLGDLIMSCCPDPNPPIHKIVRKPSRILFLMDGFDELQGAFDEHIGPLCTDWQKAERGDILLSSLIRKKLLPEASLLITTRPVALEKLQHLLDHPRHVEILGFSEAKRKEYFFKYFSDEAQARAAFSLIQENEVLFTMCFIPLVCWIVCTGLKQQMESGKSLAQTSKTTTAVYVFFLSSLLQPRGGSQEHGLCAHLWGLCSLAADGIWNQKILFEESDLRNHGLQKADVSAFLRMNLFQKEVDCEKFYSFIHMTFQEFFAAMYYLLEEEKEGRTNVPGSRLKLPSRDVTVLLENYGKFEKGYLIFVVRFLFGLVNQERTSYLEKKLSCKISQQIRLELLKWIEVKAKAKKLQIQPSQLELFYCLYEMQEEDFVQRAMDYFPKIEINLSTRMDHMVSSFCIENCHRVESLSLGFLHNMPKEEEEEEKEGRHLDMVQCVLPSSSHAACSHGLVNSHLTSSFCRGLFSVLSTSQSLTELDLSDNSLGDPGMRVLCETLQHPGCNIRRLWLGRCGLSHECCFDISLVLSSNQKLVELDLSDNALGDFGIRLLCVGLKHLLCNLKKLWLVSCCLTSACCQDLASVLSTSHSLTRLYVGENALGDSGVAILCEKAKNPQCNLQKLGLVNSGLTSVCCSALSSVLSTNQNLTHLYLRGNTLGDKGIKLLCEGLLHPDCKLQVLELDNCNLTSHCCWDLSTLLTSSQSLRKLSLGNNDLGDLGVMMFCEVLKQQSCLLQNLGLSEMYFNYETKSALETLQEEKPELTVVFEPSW
Procedure: THP-1 cells were purchased from the American Type Culture Collection and sub-cultured according to instructions from the supplier. Prior to experiments, cells were cultured in RPMI 1640 containing 10% heat inactivated FBS, penicillin (100 units/ml) and streptomycin (100 μg/ml), and maintained in log phase prior to experimental setup. Prior to the experiment THP-1 were treated with PMA (Phorbol 12-myristate 13-acetate) (10 μg/ml) for 24 hours. The day of the experiment the media was removed and attaching cells were treated with trypsin for 2 minutes, cells were then collected, washed with PBS (phosphate buffer saline), spin down, resuspended in 2% heat inactivated FBS with RPMI at a concentration of 1×10^6 cells/ml, and 100 μl was plated in a 96 well plate. Cells were incubated with compounds for 4 hours. Cell free supernatant was collected and the production of IL-1β was evaluated by ELISA. Compounds were dissolved in dimethyl sulfoxide (DMSO) and added to the culture medium to achieve desired concentration (e.g. 100, 30, 10, 3, 1, 0.3 or 0.1 μM). A vehicle only control was run concurrently with each experiment. Final DMSO concentration was 1%.

TLR8 = biological target: T3, TLR8 (Homo sapiens, UniProt Q9NR97); test: TLR8 EC50 assay
T3 sequence (Q9NR97 27-1041): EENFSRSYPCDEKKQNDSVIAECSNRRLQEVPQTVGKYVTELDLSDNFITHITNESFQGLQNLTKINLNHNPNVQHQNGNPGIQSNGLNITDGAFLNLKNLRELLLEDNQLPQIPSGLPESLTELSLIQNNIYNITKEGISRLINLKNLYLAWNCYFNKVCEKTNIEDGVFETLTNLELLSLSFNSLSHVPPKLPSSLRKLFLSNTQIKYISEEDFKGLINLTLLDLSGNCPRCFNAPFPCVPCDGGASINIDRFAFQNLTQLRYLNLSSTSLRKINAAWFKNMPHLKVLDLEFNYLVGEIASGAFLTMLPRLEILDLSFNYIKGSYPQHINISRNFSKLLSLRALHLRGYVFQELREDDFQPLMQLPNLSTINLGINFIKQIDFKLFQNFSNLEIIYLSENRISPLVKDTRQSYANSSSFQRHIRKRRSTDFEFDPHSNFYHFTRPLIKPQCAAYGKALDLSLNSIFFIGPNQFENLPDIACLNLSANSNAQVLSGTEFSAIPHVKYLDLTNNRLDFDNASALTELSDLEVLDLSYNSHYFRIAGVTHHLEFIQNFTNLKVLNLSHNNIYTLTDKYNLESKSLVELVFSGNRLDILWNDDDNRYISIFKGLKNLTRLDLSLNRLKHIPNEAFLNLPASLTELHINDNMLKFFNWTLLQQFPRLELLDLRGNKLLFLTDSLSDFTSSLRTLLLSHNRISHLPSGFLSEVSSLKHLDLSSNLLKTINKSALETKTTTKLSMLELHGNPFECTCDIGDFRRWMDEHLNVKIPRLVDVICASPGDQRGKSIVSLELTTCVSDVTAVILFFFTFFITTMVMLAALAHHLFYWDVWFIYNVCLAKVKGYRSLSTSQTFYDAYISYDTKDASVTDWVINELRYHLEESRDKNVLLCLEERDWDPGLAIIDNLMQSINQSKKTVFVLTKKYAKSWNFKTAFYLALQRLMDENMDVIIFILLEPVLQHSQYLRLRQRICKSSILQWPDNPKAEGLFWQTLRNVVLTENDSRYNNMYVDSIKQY

Compound	pEC50 (TLR7; Table 1)	pEC50 (hNLRP3; Table 1, 4 hours)	pEC50 (TLR8; Table 1)	pEC50 (TLR7; Table 2)	pEC50 (hNLRP3; Table 2, 4 hours)	pEC50 (TLR8; Table 2)
Cn1c(CCCO)nc2c(N)nc3cc(-c4cc[nH]n4)ccc3c21 [Compound 107]				< 4.00	≥ 6.00	< 4.00
Nc1nc2cc(-n3cccn3)ccc2c2[nH]c(CN3CC4COCC4C3)nc12 (stereo not shown) [Compound 109]					≥ 6.00	
CC(C)(C)OC(=O)NC1CCC(c2nc3c(N)nc4cc(Br)ccc4c3[nH]2)CC1 (stereo not shown) [Compound 110]				< 4.00	4.70 to 6.00	< 4.00
Nc1nc2cc(N3CCNC3=O)ccc2c2[nH]c(CCCO)nc12 [Compound 115]				< 4.00	4.70 to 6.00	< 4.00
CC(C(=O)O)c1ccc2c(c1)nc(N)c1nc(CCCO)[nH]c12 (stereo not shown) [Compound 117]				< 4.00	4.70 to 6.00	< 4.00
Nc1nc2cc(Br)c(F)cc2c2[nH]c(CCCO)nc12 [Compound 118]				< 4.00	4.70 to 6.00	< 4.00
CC(=O)c1ccc2c(c1)nc(N)c1nc(CCCO)[nH]c12 [Compound 119]				< 4.00	4.70 to 6.00	< 4.00
Nc1nc2cc(CC(=O)O)ccc2c2[nH]c(CCCO)nc12 [Compound 121]				< 4.00	4.70 to 6.00	< 4.00
Nc1nc2cc(Br)ccc2c2[nH]c([C@H]3CC[C@@H](O)CC3)nc12 [Compound 122]				< 4.00	4.70 to 6.00	< 4.00
COc1ccc2c(c1)nc(N)c1nc(CCCO)[nH]c12 [Compound 124]				< 4.00	4.70 to 6.00	< 4.00
Nc1nc2cc(Cl)c(Cl)cc2c2[nH]c(CCCO)nc12 [Compound 126]				< 4.00	4.70 to 6.00	< 4.00
Nc1nc2cc(Br)ccc2c2[nH]c(C3CCC(N)CC3)nc12 (stereo not shown) [Compound 131]				< 4.00	4.00 to 4.70	4.00 to 4.70
Nc1nc2ccccc2c2[nH]c([C@H]3C[C@H](O)C3)nc12 [Compound 133]				< 4.00	4.00 to 4.70	< 4.00
Nc1nc2ccccc2c2[nH]c([C@H]3CC[C@@H](O)CC3)nc12 [Compound 134]				< 4.00	4.00 to 4.70	< 4.00
Nc1nc2cc(F)c(F)cc2c2[nH]c(CCCO)nc12 [Compound 136]				< 4.00	4.00 to 4.70	< 4.00
COC(=O)CCCn1c(CCCO)nc2c(N)nc3cc(Br)ccc3c21 [Compound 141]				< 4.00	4.70 to 6.00	< 4.00
Nc1nc2cc(C3CCNCC3)ccc2c2[nH]c(CCCO)nc12 [Compound 198, 3-(4-amino-7-piperidin-4-yl-1H-imidazo[4,5-c]quinolin-2-yl)propan-1-ol]				< 4.00	< 4.00	
Nc1nc2cc(-c3cccs3)ccc2c2[nH]c(CCCOCc3ccccc3)nc12 [Compound 243]					4.70 to 6.00	

The next lines start with the values.

pEC50 (TLR7; Table 1)	pEC50 (hNLRP3; Table 1, 4 hours)	pEC50 (TLR8; Table 1)	pEC50 (TLR7; Table 2)	pEC50 (hNLRP3; Table 2, 4 hours)	pEC50 (TLR8; Table 2)	Compound
4.00 to 4.70	4.00 to 4.70	4.00 to 4.70				Nc1nc2ccccc2c2[nH]c(CCCO)nc12 [Compound 101, 3-[4-amino-1H-imidazo[4,5-c]quinolin-2-yl]propan-1-ol]
			< 4.00	≥ 6.00	< 4.00	Cn1c(CCCO)nc2c(N)nc3cc(-n4cccn4)ccc3c21 [Compound 108]
			< 4.00	4.70 to 6.00	4.00 to 4.70	Cc1ccc2c(c1)nc(N)c1nc(CCCO)[nH]c12 [Compound 111]
			< 4.00	4.70 to 6.00	< 4.00	Cn1c(CCCO)nc2c3ccc(-n4cccn4)cc3nc(N)c21 [Compound 113]
			< 4.00	4.70 to 6.00	< 4.00	CS(=O)(=O)N1CCC(c2nc3c(N)nc4cc(-n5cccn5)ccc4c3[nH]2)CC1 [Compound 114]
				4.70 to 6.00		Nc1nc2cc(Br)ccc2c2[nH]c(C3CCC(O)CC3)nc12 (stereo not shown) [Compound 116]
			< 4.00	4.70 to 6.00	< 4.00	CC(C(N)=O)c1ccc2c(c1)nc(N)c1nc(CCCO)[nH]c12 (stereo not shown) [Compound 120]
			< 4.00	4.70 to 6.00	< 4.00	CN(CCCc1nc2c(N)nc3cc(-c4cncnc4)ccc3c2[nH]1)C(=O)OC(C)(C)C [Compound 123]
			< 4.00	4.70 to 6.00	< 4.00	Nc1nc2cc(Br)ccc2c2[nH]c([C@H]3CC[C@H](O)CC3)nc12 [Compound 125]
			4.00 to 4.70	4.00 to 4.70	< 4.00	Nc1nc2cc(C(F)(F)F)ccc2c2[nH]c(CCCO)nc12 [Compound 127]
			< 4.00	4.00 to 4.70	4.00 to 4.70	Cc1cc2nc(N)c3nc(CCCO)[nH]c3c2cc1F [Compound 128]
			< 4.00	4.00 to 4.70	< 4.00	Nc1nc2ccccc2c2[nH]c(C3COC3)nc12 [Compound 129]
			< 4.00	4.00 to 4.70	< 4.00	Cn1c(CCCO)nc2c(N)nc3ccccc3c21 [Compound 130]
			< 4.00	4.00 to 4.70	< 4.00	Nc1nc2ccccc2c2[nH]c([C@H]3C[C@@H](O)C3)nc12 [Compound 132]
			< 4.00	4.00 to 4.70	< 4.00	Nc1nc2ccccc2c2[nH]c([C@H]3CC[C@H](O)CC3)nc12 [Compound 135]
			< 4.00	4.00 to 4.70	< 4.00	CN1CCC[C@H](c2nc3c(N)nc4ccccc4c3[nH]2)C1 [Compound 138]
			< 4.00	4.00 to 4.70	< 4.00	CN1CCC[C@@H](c2nc3c(N)nc4ccccc4c3[nH]2)C1 [Compound 139]
			< 4.00	4.70 to 6.00	< 4.00	COC(=O)CCn1c(CCCO)nc2c(N)nc3cc(Br)ccc3c21 [Compound 142]
			< 4.00	< 4.00		Nc1nc2cc(C3CCNC3)ccc2c2[nH]c(CCCO)nc12 (stereo not shown) [Compound 197, 3-(4-amino-7-pyrrolidin-3-yl-1H-imidazo[4,5-c]quinolin-2-yl)propan-1-ol]
